Data as given in patent publication US9487508B2, “SGC stimulators” (IRONWOOD PHARMACEUTICALS, INC., priority 2012, dated 2016).

Experiments:
[1] = target: T1, Human soluble guanylate cyclase enzyme (hsGC) (Homo sapiens, UniProt Q02108+Q02153); experiment: Purified human sGC enzyme synergy assay in the presence of sodium nitroprusside (SNP); format: biochemical; details: 30 μM compound, 1 μM SNP; fold change of specific activity vs DMSO control
T1 construct: purchased Enzo Inc. ALX-201-177
T1 sequence (Q02153 1-619): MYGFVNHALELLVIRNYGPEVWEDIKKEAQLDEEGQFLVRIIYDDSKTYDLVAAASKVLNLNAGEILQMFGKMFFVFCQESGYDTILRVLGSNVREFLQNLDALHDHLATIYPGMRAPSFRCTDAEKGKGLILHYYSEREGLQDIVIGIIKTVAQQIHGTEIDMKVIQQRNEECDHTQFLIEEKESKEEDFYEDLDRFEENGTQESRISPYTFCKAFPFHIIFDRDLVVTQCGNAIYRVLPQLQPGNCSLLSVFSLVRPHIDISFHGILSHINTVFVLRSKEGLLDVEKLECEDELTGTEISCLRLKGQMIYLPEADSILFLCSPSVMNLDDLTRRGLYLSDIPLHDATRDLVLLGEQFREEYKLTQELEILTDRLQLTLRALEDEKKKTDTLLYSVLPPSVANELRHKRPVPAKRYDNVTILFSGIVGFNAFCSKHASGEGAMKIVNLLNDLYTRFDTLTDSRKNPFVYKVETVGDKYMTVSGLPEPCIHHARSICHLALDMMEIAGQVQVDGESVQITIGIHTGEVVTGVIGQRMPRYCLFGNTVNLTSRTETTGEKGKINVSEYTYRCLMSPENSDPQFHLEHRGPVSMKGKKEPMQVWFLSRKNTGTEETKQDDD
T1 sequence (Q02108 1-690): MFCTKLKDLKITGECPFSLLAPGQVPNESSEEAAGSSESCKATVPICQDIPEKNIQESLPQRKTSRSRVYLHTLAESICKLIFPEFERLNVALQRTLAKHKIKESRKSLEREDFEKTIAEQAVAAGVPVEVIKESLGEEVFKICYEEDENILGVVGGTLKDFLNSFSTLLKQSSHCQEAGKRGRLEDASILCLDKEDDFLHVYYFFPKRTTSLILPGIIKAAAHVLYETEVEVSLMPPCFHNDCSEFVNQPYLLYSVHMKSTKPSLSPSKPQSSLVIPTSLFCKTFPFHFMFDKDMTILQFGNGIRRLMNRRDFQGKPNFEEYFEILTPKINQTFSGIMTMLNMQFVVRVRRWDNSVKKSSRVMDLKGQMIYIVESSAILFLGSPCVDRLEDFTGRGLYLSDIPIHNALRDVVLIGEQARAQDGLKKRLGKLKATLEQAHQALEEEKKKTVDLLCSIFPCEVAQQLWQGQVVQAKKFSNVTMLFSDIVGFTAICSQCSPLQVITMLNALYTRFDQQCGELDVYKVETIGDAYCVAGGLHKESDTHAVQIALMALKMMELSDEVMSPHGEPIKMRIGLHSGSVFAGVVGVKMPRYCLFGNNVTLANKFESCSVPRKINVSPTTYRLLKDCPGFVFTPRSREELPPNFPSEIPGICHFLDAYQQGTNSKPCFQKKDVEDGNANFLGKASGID
Protocol: (§1) Human soluble guanylate cyclase enzyme (hsGC) obtained from Enzo Inc. (P/N: ALX-201-177) was used to evaluate the activity of test compounds. The assay reactions contained 0.1 M Tris (pH 8.0), 0.5 mg/mL BSA (pH 8.0), 2 mM DTT, 2 mM MgCl2, 300 μM GTP, 1 mM 3-isobutyl-1-methylxanthine (IBMX) and 5 ng human soluble guanylate cyclase enzyme. Test compounds in DMSO were then added (2 μL, 10 or 30 μM final concentration) and incubated (water, 200 μL, 96-well plate format) at 37° C. for 30 minutes. The controls were carried out using 2 μL DMSO. After the 30 minute incubation, the reaction was stopped with the addition of 200 μL of cold methanol. The plate was then centrifuged at 3,200 rpm for 10 minutes at room temperature. Supernatants (200 μL) were collected and transferred to a new 96 well plate for analysis by HPLC LC/MS/MS.
(§2) An 8 point cGMP (Sigma-Aldrich P/N: G6129) standard curve was prepared in assay buffer ranging from 0.156-20 μM. Samples for the cGMP standard curve were then diluted with an equal volume of methanol resulting in final cGMP concentrations of 0.078-10 μM.
(§3) The cGMP standard curve was generated using GraphPad Prism Software.
Calculations: Specific Activity was determined by the amount of cGMP formed (nmoles) per mg of sGC per min. Enzyme “fold-change” was calculated by dividing Specific Activity for test compounds by Specific Activity of DMSO controls. […]

[2] = target: T1, Human soluble guanylate cyclase enzyme (hsGC); experiment: Purified human sGC enzyme activity assay (without SNP); format: biochemical; details: 30 μM compound, fold change of specific activity vs DMSO control
Protocol: as §1, §2, §3
Calculations: Specific Activity was determined by the amount of cGMP formed (nmoles) per mg of sGC per min. Enzyme “fold-change” was calculated by dividing Specific Activity for test compounds by Specific Activity of DMSO controls.

Enzyme Activity (increase at 30 μM with SNP) [1]: D (D = 10 or <20 fold increase) | Enzyme Activity (increase at 30 μM without SNP) [2]: C (C = 5 to <10 fold increase)
SMILES: Nc1ccnc(-n2cc(-c3ncco3)c(Cc3ccccc3F)n2)n1 [Compound I-2]
